Measurements from patent US20200060276A1, “THIAZOLE COMPOUND AND HERBICIDE” (OAT Agrio Co., Ltd., priority 2017, published 2020).

How the values were obtained:
Type in all cases: in vivo
[1] = tested on: Scirpus juncoides; assay: Test for Herbicidal Effect in Flooding Treatment (#1), SCIJU; details: flooding treatment at seeding, dose 2 kg/ha, visual observation on day 21
How it was run: (§1)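 Visual scores from 0 (<10% inhibition) to 5 (≥90% or complete withering) were taken 21 days after treatment of glasshouse-grown plants. Seeds were sown in soil flooded for 24 h beforehand, and compound was applied dropwise onto the surface at 2 kg/ha as an acetone solution diluted in water with Tween 80.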

[2] = tested on: Echinochloa crus-galli (L.) P. Beauv. var. formosensis Ohwi; assay: Test for Herbicidal Effect in Flooding Treatment (#2), ECHDG at 2-2.5 leaf stage; details: for ECHDG (2-2.5L) #2 herbicidal effect (growth inhibition grade): flooding treatment at 2-2.5 leaf stage, dose 0.2 kg/ha, visual observation on day 21; for inhibition at 200 g/ha: Echinochloa crus-galli, 504 h, flooding treatment (#2), ECHDG at 2-2.5 leaf stage, dose of 0.2 kg/ha, day 21, visual observation, read-out: growth inhibition effect
How it was run: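 Flooded muddy soil was seeded with the weed, and at 2–2.5 leaf stage compound in acetone/Tween 80 water was dropped on the water surface at 0.2 kg/ha. Plants were kept in a glasshouse and scored visually on day 21 from 0 (<10% growth inhibition) to 5 (≥90% or complete withering).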

[3] = tested on: Cyperus microiria; assay: Test for Herbicidal Effect in Flooding Treatment (#1), CYMIC; details: flooding treatment at seeding, dose 2 kg/ha, visual observation on day 21
How it was run: as §1

[4] = tested on: Echinochloa crus-galli (L.) P. Beauv. var. formosensis Ohwi; assay: Test for Herbicidal Effect in Flooding Treatment (#1), ECHDG; details: flooding treatment at seeding, dose 2 kg/ha, visual observation on day 21
How it was run: as §1

[5] = tested on: Monochoria vaginalis; assay: Test for Herbicidal Effect in Flooding Treatment (#1), MONVA; details: flooding treatment at seeding, dose 2 kg/ha, visual observation on day 21
How it was run: as §1

| SMILES | SCIJU #1 herbicidal effect (growth inhibition grade) [1] | ECHDG (2-2.5L) #2 herbicidal effect (growth inhibition grade) [2] | CYMIC #1 herbicidal effect (growth inhibition grade) [3] | ECHDG #1 herbicidal effect (growth inhibition grade) [4] | MONVA #1 herbicidal effect (growth inhibition grade) [5] | inhibition at 200 g/ha [2] |
| --- | --- | --- | --- | --- | --- | --- |
| COc1cccc(F)c1CS(=O)(=O)c1ncc(Cl)s1 [Compound 1C-5] | 5 (Growth inhibition effect is equal to or greater than 90%, or complete withering is achieved) | 5 (Growth inhibition effect is equal to or greater than 90%, or complete withering is achieved) | 5 (Growth inhibition effect is equal to or greater than 90%, or complete withering is achieved) | 5 (Growth inhibition effect is equal to or greater than 90%, or complete withering is achieved) | 5 (Growth inhibition effect is equal to or greater than 90%, or complete withering is achieved) |  |
| CCOc1ccccc1CS(=O)(=O)c1ncc(Cl)s1 [Compound 1C-8] | 5 (Growth inhibition effect is equal to or greater than 90%, or complete withering is achieved) | 5 (Growth inhibition effect is equal to or greater than 90%, or complete withering is achieved) | 5 (Growth inhibition effect is equal to or greater than 90%, or complete withering is achieved) | 5 (Growth inhibition effect is equal to or greater than 90%, or complete withering is achieved) | 5 (Growth inhibition effect is equal to or greater than 90%, or complete withering is achieved) |  |
| CCOc1c(C)cccc1CS(=O)(=O)c1ncc(Cl)s1 [Compound 1C-11] | 5 (Growth inhibition effect is equal to or greater than 90%, or complete withering is achieved) | 5 (Growth inhibition effect is equal to or greater than 90%, or complete withering is achieved) | 5 (Growth inhibition effect is equal to or greater than 90%, or complete withering is achieved) | 5 (Growth inhibition effect is equal to or greater than 90%, or complete withering is achieved) | 5 (Growth inhibition effect is equal to or greater than 90%, or complete withering is achieved) |  |
| CCOc1cccc(F)c1CS(=O)(=O)c1ncc(Cl)s1 [Compound 1C-19] | 5 (Growth inhibition effect is equal to or greater than 90%, or complete withering is achieved) | 5 (Growth inhibition effect is equal to or greater than 90%, or complete withering is achieved) | 5 (Growth inhibition effect is equal to or greater than 90%, or complete withering is achieved) | 5 (Growth inhibition effect is equal to or greater than 90%, or complete withering is achieved) | 5 (Growth inhibition effect is equal to or greater than 90%, or complete withering is achieved) | ≥ 90% |
| CCOc1c(F)cc(F)cc1CS(=O)(=O)c1ncc(Cl)s1 [Compound 1C-21] | 5 (Growth inhibition effect is equal to or greater than 90%, or complete withering is achieved) | 5 (Growth inhibition effect is equal to or greater than 90%, or complete withering is achieved) | 5 (Growth inhibition effect is equal to or greater than 90%, or complete withering is achieved) | 5 (Growth inhibition effect is equal to or greater than 90%, or complete withering is achieved) | 5 (Growth inhibition effect is equal to or greater than 90%, or complete withering is achieved) | ≥ 90% |
